Measured values published in ChEMBL document CHEMBL1909046, “DrugMatrix in vitro pharmacology data”.

Experiments:
[1] = DRUGMATRIX: GABAA, Chloride Channel, TBOB radioligand binding (ligand: [3H] TBOB); format: cell membranes, Rattus norvegicus, Wistar, Cerebral cortex, Membrane; conditions: Not Active = under 50% inhibition at 10 µM
B2 bradykinin receptor = molecular target: T1, B2 bradykinin receptor (Homo sapiens, UniProt P30411); format: cell membranes, Membrane; conditions: chem-1; further: in other assays of this panel Not Active means under 50% inhibition at 10 µM
T1 sequence (P30411 whole entry): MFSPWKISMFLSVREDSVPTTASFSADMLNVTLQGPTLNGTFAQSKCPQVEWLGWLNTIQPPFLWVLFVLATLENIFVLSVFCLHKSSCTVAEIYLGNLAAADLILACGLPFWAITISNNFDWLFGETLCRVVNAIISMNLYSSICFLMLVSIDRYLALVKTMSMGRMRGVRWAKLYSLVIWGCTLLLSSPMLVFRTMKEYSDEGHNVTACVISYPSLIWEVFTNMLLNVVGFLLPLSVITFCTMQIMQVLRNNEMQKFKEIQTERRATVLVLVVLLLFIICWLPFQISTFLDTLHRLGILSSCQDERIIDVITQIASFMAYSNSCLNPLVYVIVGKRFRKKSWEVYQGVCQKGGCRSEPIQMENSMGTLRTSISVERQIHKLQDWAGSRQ

[2] = molecular target: T2, Receptor-type tyrosine-protein phosphatase C (Homo sapiens, UniProt P08575); design: species or system Escherichia coli;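 further: inhibition of CD45 enzyme activity measured using DiFMUP as substrate; in other assays of this panel Not Active means under 50% inhibition at 10 µM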
T2 sequence (P08575 whole entry): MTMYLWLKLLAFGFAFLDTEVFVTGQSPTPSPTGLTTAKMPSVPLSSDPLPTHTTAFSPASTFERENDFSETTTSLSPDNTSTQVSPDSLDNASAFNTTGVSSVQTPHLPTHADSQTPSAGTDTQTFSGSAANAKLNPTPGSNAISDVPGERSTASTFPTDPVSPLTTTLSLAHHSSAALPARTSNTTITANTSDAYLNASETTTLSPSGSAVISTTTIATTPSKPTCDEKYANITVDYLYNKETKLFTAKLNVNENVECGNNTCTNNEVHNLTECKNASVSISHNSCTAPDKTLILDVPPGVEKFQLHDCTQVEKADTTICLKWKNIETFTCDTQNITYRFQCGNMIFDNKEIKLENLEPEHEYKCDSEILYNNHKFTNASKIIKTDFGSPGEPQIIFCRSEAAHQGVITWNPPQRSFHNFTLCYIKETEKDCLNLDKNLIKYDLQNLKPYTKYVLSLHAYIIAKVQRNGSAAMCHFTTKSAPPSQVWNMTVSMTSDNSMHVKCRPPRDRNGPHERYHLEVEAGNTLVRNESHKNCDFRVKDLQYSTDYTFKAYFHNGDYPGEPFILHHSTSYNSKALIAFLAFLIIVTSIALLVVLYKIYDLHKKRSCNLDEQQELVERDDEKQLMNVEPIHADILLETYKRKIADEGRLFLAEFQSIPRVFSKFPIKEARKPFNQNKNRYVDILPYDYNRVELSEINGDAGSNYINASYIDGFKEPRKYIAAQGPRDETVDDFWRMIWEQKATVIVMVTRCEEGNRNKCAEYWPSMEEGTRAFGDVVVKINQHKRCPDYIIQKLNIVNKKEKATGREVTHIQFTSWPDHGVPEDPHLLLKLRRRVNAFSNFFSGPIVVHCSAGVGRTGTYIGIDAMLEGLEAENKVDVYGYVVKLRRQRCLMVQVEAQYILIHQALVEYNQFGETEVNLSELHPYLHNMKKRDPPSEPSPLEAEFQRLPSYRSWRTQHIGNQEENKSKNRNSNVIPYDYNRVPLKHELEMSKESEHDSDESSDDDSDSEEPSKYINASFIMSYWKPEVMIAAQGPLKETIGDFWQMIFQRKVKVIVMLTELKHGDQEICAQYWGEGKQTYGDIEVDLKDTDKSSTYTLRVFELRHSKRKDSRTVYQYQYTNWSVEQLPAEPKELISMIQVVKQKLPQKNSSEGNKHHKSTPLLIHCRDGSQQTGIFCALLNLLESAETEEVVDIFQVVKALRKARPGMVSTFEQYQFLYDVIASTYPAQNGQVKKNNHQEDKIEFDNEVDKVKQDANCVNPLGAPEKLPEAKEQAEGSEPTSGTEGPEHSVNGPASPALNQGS

[3] = molecular target: Protein kinase C alpha type (Homo sapiens, UniProt P17252); format: cell-based; conditions: sf9;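 further: inhibition of PKCalpha kinase activity measured in an enzyme assay with histone as the phosphorylation substrate; in other assays of this panel Not Active means under 50% inhibition at 10 µM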
Nitric oxide synthase 1 = Nitric oxide synthase 1 (Rattus norvegicus, UniProt P29476); format: tissue-based, Cerebellum; further: in other assays of this panel Not Active means under 50% inhibition at 10 µM
Sequence of Nitric oxide synthase 1 (P29476 whole entry): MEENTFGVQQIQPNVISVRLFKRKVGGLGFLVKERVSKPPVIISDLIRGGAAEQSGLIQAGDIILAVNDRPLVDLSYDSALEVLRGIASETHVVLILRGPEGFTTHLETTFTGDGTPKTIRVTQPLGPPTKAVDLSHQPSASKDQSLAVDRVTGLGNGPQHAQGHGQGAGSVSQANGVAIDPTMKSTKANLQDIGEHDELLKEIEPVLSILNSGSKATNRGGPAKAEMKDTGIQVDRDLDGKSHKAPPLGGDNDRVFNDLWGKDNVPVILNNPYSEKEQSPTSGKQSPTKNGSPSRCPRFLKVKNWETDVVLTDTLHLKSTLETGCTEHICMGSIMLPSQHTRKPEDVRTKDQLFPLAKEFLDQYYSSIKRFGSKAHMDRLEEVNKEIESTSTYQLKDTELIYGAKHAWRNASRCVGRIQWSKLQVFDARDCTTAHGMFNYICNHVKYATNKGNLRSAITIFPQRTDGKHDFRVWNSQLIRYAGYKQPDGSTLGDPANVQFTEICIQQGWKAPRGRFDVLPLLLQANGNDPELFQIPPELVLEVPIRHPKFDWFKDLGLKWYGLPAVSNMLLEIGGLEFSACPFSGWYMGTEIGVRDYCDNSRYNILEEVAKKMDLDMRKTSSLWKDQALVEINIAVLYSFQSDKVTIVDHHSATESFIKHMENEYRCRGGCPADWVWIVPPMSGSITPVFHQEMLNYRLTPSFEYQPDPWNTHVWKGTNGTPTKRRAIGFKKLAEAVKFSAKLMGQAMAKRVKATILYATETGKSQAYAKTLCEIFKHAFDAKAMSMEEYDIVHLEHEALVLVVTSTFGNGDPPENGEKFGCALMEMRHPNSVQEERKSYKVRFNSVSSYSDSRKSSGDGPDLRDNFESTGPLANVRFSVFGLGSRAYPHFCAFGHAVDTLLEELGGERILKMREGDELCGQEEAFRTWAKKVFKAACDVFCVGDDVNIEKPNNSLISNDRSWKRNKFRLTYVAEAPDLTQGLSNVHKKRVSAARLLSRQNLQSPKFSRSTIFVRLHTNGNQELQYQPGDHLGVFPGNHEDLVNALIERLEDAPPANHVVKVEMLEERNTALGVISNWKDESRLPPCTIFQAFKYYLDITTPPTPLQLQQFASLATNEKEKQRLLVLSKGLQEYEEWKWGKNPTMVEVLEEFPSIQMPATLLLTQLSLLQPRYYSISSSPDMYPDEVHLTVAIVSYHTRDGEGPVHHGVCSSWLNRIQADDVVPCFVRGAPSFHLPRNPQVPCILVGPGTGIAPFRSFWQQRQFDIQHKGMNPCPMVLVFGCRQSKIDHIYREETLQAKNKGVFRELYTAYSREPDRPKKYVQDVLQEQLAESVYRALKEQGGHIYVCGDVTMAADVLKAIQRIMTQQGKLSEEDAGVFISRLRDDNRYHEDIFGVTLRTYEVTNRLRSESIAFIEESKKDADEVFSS

[4] = DRUGMATRIX: Purinergic P2X radioligand binding (ligand: [3H] alpha, beta-Methylene-ATP); format: cell membranes, Oryctolagus cuniculus, New Zealand albino, Urinary bladder, Membrane; conditions: Not Active = under 50% inhibition at 10 µM
[5] = molecular target: T3, C-X-C chemokine receptor type 2 (Homo sapiens, UniProt P25025); format: cell membranes, Membrane; conditions: cho-k1; further: in other assays of this panel Not Active means under 50% inhibition at 10 µM
T3 sequence (P25025 whole entry): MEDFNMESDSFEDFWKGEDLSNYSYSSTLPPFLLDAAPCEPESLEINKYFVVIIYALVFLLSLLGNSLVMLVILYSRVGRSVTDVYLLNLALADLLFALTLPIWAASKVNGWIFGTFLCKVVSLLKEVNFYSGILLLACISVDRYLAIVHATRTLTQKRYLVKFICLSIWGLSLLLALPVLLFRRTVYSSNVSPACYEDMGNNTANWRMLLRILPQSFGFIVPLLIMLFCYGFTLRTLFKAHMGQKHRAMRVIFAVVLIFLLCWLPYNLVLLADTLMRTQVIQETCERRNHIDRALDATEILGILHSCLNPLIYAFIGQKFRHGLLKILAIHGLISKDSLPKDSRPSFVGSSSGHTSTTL

[6] = molecular target: Aldo-keto reductase family 1 member B1 (Rattus norvegicus, UniProt P07943); assay: biochemical; format: tissue-based, Lens of camera-type eye
[7] = molecular target: Vascular endothelial growth factor receptor 1 (Homo sapiens, UniProt P17948); assay: biochemical; format: cell-based, HUVEC; conditions: huvec; further: in other assays of this panel Not Active means under 50% inhibition at 10 µM
Sequence of Vascular endothelial growth factor receptor 1 (P17948 whole entry): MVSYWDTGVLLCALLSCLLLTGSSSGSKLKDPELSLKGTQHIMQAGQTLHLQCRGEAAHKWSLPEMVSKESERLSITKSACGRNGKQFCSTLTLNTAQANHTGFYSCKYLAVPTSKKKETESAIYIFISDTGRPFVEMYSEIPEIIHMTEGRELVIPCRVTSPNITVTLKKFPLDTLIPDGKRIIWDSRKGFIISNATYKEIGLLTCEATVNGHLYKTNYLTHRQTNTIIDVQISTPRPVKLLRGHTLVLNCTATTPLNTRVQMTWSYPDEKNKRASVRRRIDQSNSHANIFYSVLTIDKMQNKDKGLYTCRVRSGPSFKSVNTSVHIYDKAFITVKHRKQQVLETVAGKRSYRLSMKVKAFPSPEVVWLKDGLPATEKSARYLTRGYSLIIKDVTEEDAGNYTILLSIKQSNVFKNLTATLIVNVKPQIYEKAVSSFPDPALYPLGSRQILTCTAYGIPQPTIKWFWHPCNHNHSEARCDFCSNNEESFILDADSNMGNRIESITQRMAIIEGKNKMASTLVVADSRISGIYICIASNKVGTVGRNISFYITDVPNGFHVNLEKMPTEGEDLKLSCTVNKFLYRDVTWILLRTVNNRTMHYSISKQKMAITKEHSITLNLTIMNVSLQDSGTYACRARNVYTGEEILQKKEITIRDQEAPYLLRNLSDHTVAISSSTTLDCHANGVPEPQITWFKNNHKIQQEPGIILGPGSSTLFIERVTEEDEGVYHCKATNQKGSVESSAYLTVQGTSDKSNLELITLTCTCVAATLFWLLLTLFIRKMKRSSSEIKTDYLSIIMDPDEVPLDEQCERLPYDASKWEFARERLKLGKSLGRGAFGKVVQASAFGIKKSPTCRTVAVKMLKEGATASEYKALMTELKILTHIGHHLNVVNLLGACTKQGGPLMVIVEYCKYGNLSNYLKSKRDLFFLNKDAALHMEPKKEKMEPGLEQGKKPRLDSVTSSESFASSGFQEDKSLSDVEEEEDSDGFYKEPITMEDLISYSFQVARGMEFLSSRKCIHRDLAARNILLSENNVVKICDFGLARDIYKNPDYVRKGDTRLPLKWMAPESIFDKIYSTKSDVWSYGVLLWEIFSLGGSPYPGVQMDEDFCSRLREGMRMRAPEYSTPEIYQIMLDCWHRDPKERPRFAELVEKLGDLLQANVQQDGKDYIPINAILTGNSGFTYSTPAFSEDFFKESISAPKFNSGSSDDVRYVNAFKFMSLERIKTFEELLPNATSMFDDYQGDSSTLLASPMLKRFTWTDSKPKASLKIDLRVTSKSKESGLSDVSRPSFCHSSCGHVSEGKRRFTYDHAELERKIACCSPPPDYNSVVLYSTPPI

C[C@@H](O)[C@H]1C(=O)N2C(C(=O)O)=C(S[C@@H]3CN[C@H](C(=O)N(C)C)C3)[C@H](C)[C@H]12 [MEROPENEM]
Not Active: IC50 [1] | Ki [1] | IC50 (B2 bradykinin receptor) | IC50 [2] | IC50 [3] | IC50 (Nitric oxide synthase 1) | IC50 [4] | Ki [4] | IC50 [5] | IC50 [6] | IC50 [7]

O=P(O)(O)C(O)(Cc1cccnc1)P(=O)(O)O [RISEDRONIC ACID]
Not Active: IC50 [1] | Ki [1] | IC50 (B2 bradykinin receptor) | IC50 [2] | IC50 [3] | IC50 (Nitric oxide synthase 1) | IC50 [4] | Ki [4] | IC50 [5] | IC50 [6] | IC50 [7]

CN(CCOc1ccc(CC2SC(=O)NC2=O)cc1)c1ccccn1 (configuration not stated) [ROSIGLITAZONE]
Not Active: IC50 [1] | Ki [1] | IC50 (B2 bradykinin receptor) | IC50 [2] | IC50 [3] | IC50 (Nitric oxide synthase 1) | IC50 [4] | Ki [4] | IC50 [5] | IC50 [6] | IC50 [7]

C=C(C)[C@H]1Cc2c(ccc3c2O[C@@H]2COc4cc(OC)c(OC)cc4[C@@H]2C3=O)O1 [ROTENONE]
Not Active: IC50 [1] | Ki [1] | IC50 (B2 bradykinin receptor) | IC50 [2] | IC50 [3] | IC50 (Nitric oxide synthase 1) | IC50 [4] | Ki [4] | IC50 [5] | IC50 [6] | IC50 [7]

C#CCN(C)[C@H](C)Cc1ccccc1 [SELEGILINE]
Not Active: IC50 [1] | Ki [1] | IC50 (B2 bradykinin receptor) | IC50 [2] | IC50 [3] | IC50 (Nitric oxide synthase 1) | IC50 [4] | Ki [4] | IC50 [5] | IC50 [6] | IC50 [7]

CO[C@H]1C[C@@H]2CC[C@@H](C)[C@@](O)(O2)C(=O)C(=O)N2CCCC[C@H]2C(=O)O[C@H]([C@H](C)C[C@@H]2CC[C@@H](O)[C@H](OC)C2)CC(=O)[C@H](C)/C=C(\C)[C@@H](O)[C@@H](OC)C(=O)[C@H](C)C[C@H](C)/C=C/C=C/C=C/1C [SIROLIMUS]
Not Active: IC50 [1] | Ki [1] | IC50 (B2 bradykinin receptor) | IC50 [2] | IC50 [3] | IC50 (Nitric oxide synthase 1) | IC50 [4] | Ki [4] | IC50 [5] | IC50 [6] | IC50 [7]

CN[C@@H]1[C@H](O)[C@H](NC)[C@H]2O[C@@]3(O)C(=O)C[C@@H](C)O[C@H]3O[C@@H]2[C@H]1O [SPECTINOMYCIN]
Not Active: IC50 [1] | Ki [1] | IC50 (B2 bradykinin receptor) | IC50 [2] | IC50 [3] | IC50 (Nitric oxide synthase 1) | IC50 [4] | Ki [4] | IC50 [5] | IC50 [6] | IC50 [7]

Nc1ccc(S(=O)(=O)Nc2ncccn2)cc1 [SULFADIAZINE]
Not Active: IC50 [1] | Ki [1] | IC50 (B2 bradykinin receptor) | IC50 [2] | IC50 [3] | IC50 (Nitric oxide synthase 1) | IC50 [4] | Ki [4] | IC50 [5] | IC50 [6] | IC50 [7]

COc1ncnc(NS(=O)(=O)c2ccc(N)cc2)c1OC [SULFADOXINE]
Not Active: IC50 [1] | Ki [1] | IC50 (B2 bradykinin receptor) | IC50 [2] | IC50 [3] | IC50 (Nitric oxide synthase 1) | IC50 [4] | Ki [4] | IC50 [5] | IC50 [6] | IC50 [7]

Nc1ccc(S(=O)(=O)Nc2nccs2)cc1 [SULFATHIAZOLE]
Not Active: IC50 [1] | Ki [1] | IC50 (B2 bradykinin receptor) | IC50 [2] | IC50 [3] | IC50 (Nitric oxide synthase 1) | IC50 [4] | Ki [4] | IC50 [5] | IC50 [6] | IC50 [7]

C[C@]12CC[C@H]3[C@@H](CCC4=CC(=O)CC[C@@]43C)[C@@H]1CC[C@@H]2O [TESTOSTERONE]
Not Active: IC50 [1] | Ki [1] | IC50 (B2 bradykinin receptor) | IC50 [2] | IC50 [3] | IC50 (Nitric oxide synthase 1) | IC50 [4] | Ki [4] | IC50 [5] | IC50 [6] | IC50 [7]

CC(C)(C)NC[C@H](O)COc1nsnc1N1CCOCC1 [TIMOLOL]
Not Active: IC50 [1] | Ki [1] | IC50 (B2 bradykinin receptor) | IC50 [2] | IC50 [3] | IC50 (Nitric oxide synthase 1) | IC50 [4] | Ki [4] | IC50 [5] | IC50 [6] | IC50 [7]
